Consider 24 molecules from patent publication US10934285B2, “Compounds and compositions for inhibiting the activity of SHP2” (Novartis AG, priority 2016, dated 2021).

The target of this experiment is SHP2 (Homo sapiens (Human), UniProt Q06124). Briefly: SHP2 Allosteric Inhibition Assay. The following applies: 0.5 nM SHP2 activated with 0.5 μM peptide IRS1_pY1172(dPEG8)pY1222; surrogate substrate DiFMUP; prompt fluorescence. Format: biochemical. The text has this: SHP2 Allosteric Inhibition Assay
Sequence of SHP2 (Q06124 whole entry): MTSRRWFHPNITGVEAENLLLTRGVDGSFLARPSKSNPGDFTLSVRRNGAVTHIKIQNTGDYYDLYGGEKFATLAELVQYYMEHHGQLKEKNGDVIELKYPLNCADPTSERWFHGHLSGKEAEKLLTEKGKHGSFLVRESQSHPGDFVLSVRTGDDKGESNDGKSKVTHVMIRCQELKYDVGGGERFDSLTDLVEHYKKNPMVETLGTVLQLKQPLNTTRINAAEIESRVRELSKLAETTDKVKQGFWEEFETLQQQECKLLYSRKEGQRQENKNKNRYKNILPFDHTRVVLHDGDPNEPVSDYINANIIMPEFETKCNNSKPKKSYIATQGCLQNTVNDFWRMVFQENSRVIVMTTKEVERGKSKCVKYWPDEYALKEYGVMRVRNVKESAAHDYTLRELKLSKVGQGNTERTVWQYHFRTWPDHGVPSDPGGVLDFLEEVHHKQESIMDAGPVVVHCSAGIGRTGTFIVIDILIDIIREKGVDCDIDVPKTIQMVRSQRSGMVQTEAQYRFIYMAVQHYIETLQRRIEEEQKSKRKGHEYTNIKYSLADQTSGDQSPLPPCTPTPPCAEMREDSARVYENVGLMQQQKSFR
SHP2 is allosterically activated through binding of bis-tyrosyl-phorphorylated peptides to its Src Homology 2 (SH2) domains. The latter activation step leads to the release of the auto-inhibitory interface of SHP2, which in turn renders the SHP2 protein tyrosine phosphatase (PTP) active and available for substrate recognition and reaction catalysis. The catalytic activity of SHP2 was monitored using the surrogate substrate DiFMUP in a prompt fluorescence assay format.
After 30-60 minutes incubation at 25° C., the surrogate substrate DiFMUP (Invitrogen, cat #D6567) was added to the reaction and incubated at 25° C. for 30 minutes. […] The inhibitor dose response curves were analyzed using normalized IC50 regression curve fitting with control based normalization.

pIC50: −log10 of the molar value.

`CN1C(=O)C(C(=O)Nc2cccc(Sc3ncc(N4CCC(C)(N)CC4)nc3N)c2Cl)=C(O)C1(C)C` [Example 59, N-(3-((3-amino-5-(4-amino-4-methylpiperidin-1-yl)pyrazin-2-yl)thio)-2-chlorophenyl)-4-hydroxy-1,5,5-trimethyl-2-oxo-2,5-dihydro-1H-pyrrole-3-carboxamide] had a pIC50 of more than 8.52.

`Nc1nc(N2CCC3(CCC[C@H]3N)CC2)nnc1Sc1cccc(NC(=O)c2c(O)nc3ccccn3c2=O)c1Cl` [Example 42, (R)-N-(3-((5-amino-3-(1-amino-8-azaspiro[4.5]decan-8-yl)-1,2,4-triazin-6-yl)thio)-2-chlorophenyl)-2-hydroxy-4-oxo-4H-pyrido[1,2-a]pyrimidine-3-carboxamide]: the pIC50 was 7.80.

In the case of `Nc1nc(N2CCC(N)(C(F)(F)F)CC2)cnc1Sc1cccc(NC(=O)c2c(O)nc3n(c2=O)CCCC3)c1Cl` [Example 20, N-(3-((3-amino-5-(4-amino-4-(trifluoromethyl)piperidin-1-yl)pyrazin-2-yl)thio)-2-chlorophenyl)-2-hydroxy-4-oxo-6,7,8,9-tetrahydro-4H-pyrido[1,2-a]pyrimidine-3-carboxamide], the pIC50 is 5.30.

On to `O=C(Nc1cccc(Sc2ccc3nc(N4CCCCC4)[nH]c3n2)c1Cl)C1=C(O)[C@H](c2ccccc2)NC1=O` [Example 64, (S)-N-(2-chloro-3-((2-(piperidin-1-yl)-3H-imidazo[4,5-b]pyridin-5-yl)thio)phenyl)-4-hydroxy-2-oxo-5-phenyl-2,5-dihydro-1H-pyrrole-3-carboxamide], for which the pIC50 was 7.05.

`Nc1nc(N2CCC3(CCC[C@H]3N)CC2)cnc1Sc1cccc(NC(=O)c2c(O)nc3ccccn3c2=O)c1Cl` [Example 23, (R)-N-(3-((3-amino-5-(1-amino-8-azaspiro[4.5]decan-8-yl)pyrazin-2-yl)thio)-2-chlorophenyl)-2-hydroxy-4-oxo-4H-pyrido[1,2-a]pyrimidine-3-carboxamide] showed a pIC50 of 8.30. Against the preceding molecule, the pIC50 is 1.25 log units higher.

For the molecule `C[C@@H]1CN(c2cnc(Sc3cccc(NC(=O)C4=C(O)CN(c5ccccc5)C4=O)c3Cl)c(N)n2)C[C@H](C)N1` [Example 57, N-(3-((3-amino-5-(cis-3,5-dimethylpiperazin-1-yl)pyrazin-2-yl)thio)-2-chlorophenyl)-4-hydroxy-2-oxo-1-phenyl-2,5-dihydro-1H-pyrrole-3-carboxamide], the pIC50 was 7.96.

`CC1(CN)CCN(c2nnc(Sc3cccc(NC(=O)c4c(O)nc5sccn5c4=O)c3Cl)c(N)n2)CC1` [Example 32, N-(3-((5-amino-3-(4-(aminomethyl)-4-methylpiperidin-1-yl)-1,2,4-triazin-6-yl)thio)-2-chlorophenyl)-7-hydroxy-5-oxo-5H-thiazolo[3,2-a]pyrimidine-6-carboxamide] showed a pIC50 of 8.10.

Regarding `Nc1nc(N2CCC(N)(CF)CC2)cnc1Sc1cccc(NC(=O)c2c(O)nc3n(c2=O)CCCC3)c1Cl` [Example 14, N-(3-((3-amino-5-(4-amino-4-(fluoromethyl)piperidin-1-yl)pyrazin-2-yl)thio)-2-chlorophenyl)-2-hydroxy-4-oxo-6,7,8,9-tetrahydro-4H-pyrido[1,2-a]pyrimidine-3-carboxamide], the pIC50 was 8.23.

Molecule `Cc1oc(=O)oc1COC(=O)NCC1(C)CCN(c2cnc(Sc3cccc(NC(=O)c4c(O)nc5ccccn5c4=O)c3Cl)c(N)n2)CC1` [Example 25, (5-Methyl-2-oxo-1,3-dioxol-4-yl)methyl ((1-(6-amino-5-((2-chloro-3-(2-hydroxy-4-oxo-4H-pyrido[1,2-a]pyrimidine-3-carboxamido)phenyl)thio)pyrazin-2-yl)-4-methylpiperidin-4-yl)methyl)carbamate] had a pIC50 of 7.10.

`CNC1(C)CCN(c2cnc(Sc3cccc(NC(=O)C4=C(O)CN(c5ccccc5)C4=O)c3Cl)c(N)n2)CC1` [Example 56, N-(3-((3-amino-5-(4-methyl-4-(methylamino)piperidin-1-yl)pyrazin-2-yl)thio)-2-chlorophenyl)-4-hydroxy-2-oxo-1-phenyl-2,5-dihydro-1H-pyrrole-3-carboxamide]: the pIC50 is 8.18.

`Nc1nc(N2CCC(N)(CF)CC2)cnc1Sc1cccc(NC(=O)c2c(O)nc3ccccn3c2=O)c1Cl` [Example 13, N-(3-((3-amino-5-(4-amino-4-(fluoromethyl)piperidin-1-yl)pyrazin-2-yl)thio)-2-chlorophenyl)-2-hydroxy-4-oxo-4H-pyrido[1,2-a]pyrimidine-3-carboxamide] had a pIC50 of 8.34. This pIC50 and that of the molecule before are within 0.2 log units of each other.

In the case of `CN1C(=O)C(C(=O)Nc2cccc(Sc3ccc4nc(N5CCCCC5)[nH]c4n3)c2Cl)=C(O)C1Cc1ccccc1` (stereo not drawn) [Example 61, 5-benzyl-N-(2-chloro-3-((2-(piperidin-1-yl)-3H-imidazo[4,5-b]pyridin-5-yl)thio)phenyl)-4-hydroxy-1-methyl-2-oxo-2,5-dihydro-1H-pyrrole-3-carboxamide], the pIC50 is 7.66.

Consider `CC1(CN)CCN(c2cnc(Sc3cccc(NC(=O)c4c(O)nc5n(c4=O)CCNC5)c3Cl)c(N)n2)CC1` [Example 9, N-(3-((3-amino-5-(4-(aminomethyl)-4-methylpiperidin-1-yl)pyrazin-2-yl)thio)-2-chlorophenyl)-2-hydroxy-4-oxo-6,7,8,9-tetrahydro-4H-pyrazino[1,2-a]pyrimidine-3-carboxamide], for which the pIC50 was 8.15. Compared with the last molecule, the pIC50 is 0.49 log units higher.

The molecule `CC1(CN)CCN(c2cnc(Sc3cccc(NC(=O)c4c(O)nc5ccccn5c4=O)c3Cl)c(N)n2)CC1` [Example 2, N-(3-((3-amino-5-(4-(aminomethyl)-4-methylpiperidin-1-yl)pyrazin-2-yl)thio)-2-chlorophenyl)-2-hydroxy-4-oxo-4H-pyrido[1,2-a]pyrimidine-3-carboxamide] gave a pIC50 of 8.15.

For the molecule `CC1(N)CCN(c2nc3ccc(Sc4cccc(NC(=O)C5=C(O)CN(c6ccccc6)C5=O)c4)nc3[nH]2)CC1` [Example 46, N-(3-((2-(4-Amino-4-methylpiperidin-1-yl)-3H-imidazo[4,5-b]pyridin-5-yl)thio)phenyl)-4-hydroxy-2-oxo-1-phenyl-2,5-dihydro-1H-pyrrole-3-carboxamide], the negative-log IC50 (pIC50) is 7.15.

`CC1(CN)CCN(c2cnc(Sc3cccc(NC(=O)c4c(O)nc5n(c4=O)CCCC5)c3Cl)cn2)CC1` [Example 45, N-(3-((5-(4-(aminomethyl)-4-methylpiperidin-1-yl)pyrazin-2-yl)thio)-2-chlorophenyl)-2-hydroxy-4-oxo-6,7,8,9-tetrahydro-4H-pyrido[1,2-a]pyrimidine-3-carboxamide] gave a pIC50 of 8.15.

Regarding `CC1(N)CCN(c2cnc(Sc3cccc(NC(=O)c4c(O)c5ccccc5[nH]c4=O)c3Cl)c(N)n2)CC1` [Example 58, N-(3-((3-Amino-5-(4-amino-4-methylpiperidin-1-yl)pyrazin-2-yl)thio)-2-chlorophenyl)-4-hydroxy-2-oxo-1,2-dihydroquinoline-3-carboxamide], the pIC50 was 7.14. Against the preceding molecule, the pIC50 is 1.01 log units lower.

Turning to `CC1(CN)CCN(c2nnc(Sc3cccc(NC(=O)C4=C(O)NC5CCCCN5C4=O)c3Cl)c(N)n2)CC1` (stereo not drawn) [Example 37, N-(3-((5-amino-3-(4-(aminomethyl)-4-methylpiperidin-1-yl)-1,2,4-triazin-6-yl)thio)-2-chlorophenyl)-2-hydroxy-4-oxo-4,6,7,8,9,9a-hexahydro-1H-pyrido[1,2-a]pyrimidine-3-carboxamide], the pIC50 was 8.22.

As for `CC1(N)CCN(c2cnc(Sc3cccc(NC(=O)c4c(O)nc5n(c4=O)CCCC5)c3Cl)cn2)CC1` [Example 44, N-(3-((5-(4-amino-4-methylpiperidin-1-yl)pyrazin-2-yl)thio)-2-chlorophenyl)-2-hydroxy-4-oxo-6,7,8,9-tetrahydro-4H-pyrido[1,2-a]pyrimidine-3-carboxamide], the pIC50 is 7.85. Against the preceding molecule, the pIC50 is 0.37 log units lower.

On to `CC[C@@H]1OCC2(CCN(c3cnc(Sc4cccc(NC(=O)c5c(O)nc6n(c5=O)CCCC6)c4Cl)c(N)n3)CC2)[C@@H]1N` [Example 29, N-(3-((3-amino-5-((3S,4S)-4-amino-3-ethyl-2-oxa-8-azaspiro[4.5]decan-8-yl)pyrazin-2-yl)thio)-2-chlorophenyl)-2-hydroxy-4-oxo-6,7,8,9-tetrahydro-4H-pyrido[1,2-a]pyrimidine-3-carboxamide], for which the pIC50 was 7.92.

Molecule `C[C@@H]1OCC2(CCN(c3cnc(Sc4cccc(NC(=O)c5c(O)nc6n(c5=O)CCCC6)c4Cl)c(N)n3)CC2)[C@@H]1N` [Example 27, N-(3-((3-Amino-5-((3S,4S)-4-amino-3-methyl-2-oxa-8-azaspiro[4.5]decan-8-yl)pyrazin-2-yl)thio)-2-chlorophenyl)-2-hydroxy-4-oxo-6,7,8,9-tetrahydro-4H-pyrido[1,2-a]pyrimidine-3-carboxamide] had a pIC50 of 7.64.

`CC1(CN)CCN(c2nnc(Sc3cccc(NC(=O)c4c(O)nc5ccccc5c4O)c3Cl)c(N)n2)CC1` [Example 31, N-(3-((5-amino-3-(4-(aminomethyl)-4-methylpiperidin-1-yl)-1,2,4-triazin-yl)thio)-2-chlorophenyl)-2,4-dihydroxyquinoline-3-carboxamide] gave a pIC50 of 7.42.

The molecule `Cn1c(=O)c(C(=O)Nc2cccc(Sc3ncc(N4CCC(C)(CN)CC4)nc3N)c2Cl)c(O)c2ccccc21` [Example 8, N-(3-((3-amino-5-(4-(aminomethyl)-4-methylpiperidin-1-yl)pyrazin-2-yl)thio)-2-chlorophenyl)-4-hydroxy-1-methyl-2-oxo-1,2-dihydroquinoline-3-carboxamide] gave a pIC50 of 7.36.

`CC1(N)CCN(c2cnc(Sc3cccc(NC(=O)C4=C(O)CN(c5ccccc5)C4=O)c3Cl)c(N)n2)CC1` [Example 53, N-(3-((3-amino-5-(4-amino-4-methylpiperidin-1-yl)pyrazin-2-yl)thio)-2-chlorophenyl)-4-hydroxy-2-oxo-1-phenyl-2,5-dihydro-1H-pyrrole-3-carboxamide] gave a negative-log IC50 (pIC50) of 8.36. This pIC50 lies 1.00 log units higher than the previous one.
